± gives the standard deviation of the averaged measurements. Values belong to the compound of their own block, whether it stands above or below them.
Assay: TIMS collisional cross section (CCS, N2) of the lipid ion; higher = larger ion cross section
Conditions: ionization mode: negative, one isomer drawn
Experimental: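 Lipid extracts of human plasma (NIST SRM 1950), mouse liver or HeLa cells were separated by nanoflow C18 LC (30 min gradient) and analysed by TIMS-PASEF on a timsTOF Pro. Ion mobility was calibrated with the Agilent tuning mix (negative mode ions) and converted to collisional cross sections (Mason–Schamp, N2).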
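Note: lipids from MTBE extraction, five replicate injections per sample, 100 ms TIMS ramp spanning 0.6–1.95 Vs/cm², lipid identity assigned from PASEF MS/MS spectra.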

TIMS collisional cross section (sample type: Human plasma, ion (formula + adduct): [C44H82NO7P+AcO] 1-): 299.9 Å²
TIMS collisional cross section (sample type: Human plasma, ion (formula + adduct): [C44H82NO7P+HCOO] 1-): 293.3 Å²
TIMS collisional cross section (sample type: Mouse Liver, ion (formula + adduct): [C44H82NO7P+HCOO] 1-): 292.7 Å²
SMILES: CCCCC/C=C\C/C=C\C/C=C\C/C=C\CCCC(=O)O[C@H](COCCCCCCCCCCCCCCCC)COP(=O)([O-])OCC[N+](C)(C)C [PC O- 16:0@_20:4]

TIMS collisional cross section (sample type: Mouse Liver, ion (formula + adduct): [C42H82NO8P-H] 1-): 278 Å²
SMILES: CCCCCCCCC/C=C\CCCCCCCC(=O)O[C@H](COC(=O)CCCCCCCCCCCCCCCCC)COP(=O)(O)OCCN [PE 18:0_19:1]

TIMS collisional cross section (sample type: Human plasma, ion (formula + adduct): [C36H62O5-H] 1-): 251.2 Å²
SMILES: CC/C=C\C/C=C\C/C=C\CCCCCCCC(=O)O[C@@H](CO)COC(=O)CCCCCCC/C=C\CCCCC [DG 15:1@_18:3_0:0]

TIMS collisional cross section (sample type: Mouse Liver, ion (formula + adduct): [C42H78NO8P-H] 1-): 273.3 Å²
SMILES: CCCCC/C=C\C/C=C\CCCCCCCC(=O)O[C@H](COC(=O)CCCCCCC/C=C\CCCCCC)COP(=O)([O-])OCC[N+](C)(C)C [PC 16:1@_18:2]

TIMS collisional cross section (sample type: Human plasma, ion (formula + adduct): [C46H78NO8P+HCOO] 1-): 295.4 Å²
SMILES: CC/C=C\C/C=C\C/C=C\C/C=C\C/C=C\C/C=C\CCC(=O)O[C@H](COC(=O)CCCCCCC/C=C\CCCCCC)COP(=O)([O-])OCC[N+](C)(C)C [PC 16:1_22:6]

TIMS collisional cross section (sample type: Mouse Liver, ion (formula + adduct): [C46H82NO8P+HCOO] 1-): 298.9 Å²
SMILES: CCCCC/C=C\C/C=C\C/C=C\C/C=C\C/C=C\CCC(=O)O[C@H](COC(=O)CCCCCCCCCCCCCCC)COP(=O)([O-])OCC[N+](C)(C)C [PC 16:0_22:5]

TIMS collisional cross section (sample type: Mouse Liver, ion (formula + adduct): [C40H75O10P-H] 1-): 276.9 Å²
SMILES: CCCCCC/C=C\CCCCCCCC(=O)O[C@H](COC(=O)CCCCCCC/C=C\CCCCCCCC)COP(=O)(O)OC[C@@H](O)CO [PG 18:1_16:1]

TIMS collisional cross section (sample type: Human plasma, ion (formula + adduct): [C36H70NO10P-H] 1-): 269.6 Å²
SMILES: CCCCCCCCCCCCCCCC(=O)OC[C@H](COP(=O)(O)OC[C@H](N)C(=O)O)OC(=O)CCCCCCCCCCCCC [PS 16:0_14:0@]

TIMS collisional cross section (sample type: Human plasma, ion (formula + adduct): [C43H78NO8P-H] 1-): 276.8 Å²
SMILES: CCCCC/C=C\C/C=C\C/C=C\C/C=C\CCCCCC(=O)O[C@H](COC(=O)CCCCCCCCCCCCCCC)COP(=O)(O)OCCN [PE 16:0_22:4]

TIMS collisional cross section (sample type: Mouse Liver, ion (formula + adduct): [C43H80NO8P-H] 1-): 277.3 Å²
SMILES: CCCCC/C=C\C/C=C\C/C=C\CCCCCCC(=O)OC[C@H](COP(=O)(O)OCCN)OC(=O)CCCCCCCCCCCCCCCCC [PE 20:3_18:0]

TIMS collisional cross section (sample type: Mouse Liver, ion (formula + adduct): [C46H75O10P-H] 1-): 287.5 Å²
SMILES: CC/C=C\C/C=C\C/C=C\C/C=C\C/C=C\C/C=C\CCC(=O)O[C@H](COC(=O)CCCCCCC/C=C\C/C=C\CCCCC)COP(=O)(O)OC[C@@H](O)CO [PG 18:2_22:6]

TIMS collisional cross section (sample type: Human plasma, ion (formula + adduct): [C48H84NO8P+HCOO] 1-): 303.4 Å²
TIMS collisional cross section (sample type: Mouse Liver, ion (formula + adduct): [C48H84NO8P+HCOO] 1-): 302.2 Å²
SMILES: CC/C=C\C/C=C\C/C=C\C/C=C\C/C=C\C/C=C\CCC(=O)O[C@H](COC(=O)CCCCCCCCCCCCCCCCC)COP(=O)([O-])OCC[N+](C)(C)C [PC 18:0_22:6]

TIMS collisional cross section (sample type: Mouse Liver, ion (formula + adduct): [C46H80NO8P-CH3] 1-): 280.1 Å²
SMILES: CCCCC/C=C\C/C=C\C/C=C\C/C=C\C/C=C\CCC(=O)O[C@H](COC(=O)CCCCCCC/C=C\CCCCCC)COP(=O)([O-])OCC[N+](C)(C)C [PC 16:1@_22:5]

TIMS collisional cross section (sample type: Mouse Liver, ion (formula + adduct): [C41H78NO8P-H] 1-): 272.8 Å²
SMILES: CCCCC/C=C\C/C=C\CCCCCCCC(=O)OC(COC(=O)CCCCCCCCCCCCCCCCC)COP(=O)(O)OCCN (configuration not stated) [PE 18:0_18:2]

TIMS collisional cross section (sample type: Mouse Liver, ion (formula + adduct): [C46H76NO10P-H] 1-): 288 Å²
SMILES: CC/C=C\C/C=C\C/C=C\C/C=C\C/C=C\C/C=C\CCC(=O)O[C@H](COC(=O)CCCCCCC/C=C\CCCCCCCC)COP(=O)(O)OC[C@H](N)C(=O)O [PS 18:1@_22:6]

TIMS collisional cross section (sample type: Human plasma, ion (formula + adduct): [C28H54NO7P+HCOO] 1-): 246.6 Å²
TIMS collisional cross section (sample type: Mouse Liver, ion (formula + adduct): [C28H54NO7P+HCOO] 1-): 245.7 ± 0.42 Å²
SMILES: CCCCC/C=C\C/C=C\CCCCCCCCCC(=O)OC[C@@H](O)COP(=O)([O-])OCC[N+](C)(C)C [LPC 20:2_0:0]

TIMS collisional cross section (sample type: Human plasma, ion (formula + adduct): [C23H44NO7P-H] 1-): 212.88 ± 0.79 Å²
TIMS collisional cross section (sample type: Mouse Liver, ion (formula + adduct): [C23H44NO7P-H] 1-): 212.2 Å²
SMILES: CCCCC/C=C\C/C=C\CCCCCCCC(=O)OC[C@@H](O)COP(=O)(O)OCCN [LPE 18:2_0:0]

TIMS collisional cross section (sample type: Human plasma, ion (formula + adduct): [C44H76NO8P+HCOO] 1-): 290.4 Å²
TIMS collisional cross section (sample type: Mouse Liver, ion (formula + adduct): [C44H76NO8P+HCOO] 1-): 290.4 Å²
SMILES: CC/C=C\C/C=C\C/C=C\C/C=C\C/C=C\CCCC(=O)O[C@H](COC(=O)CCCCCCC/C=C\CCCCCC)COP(=O)([O-])OCC[N+](C)(C)C [PC 16:1_20:5]

TIMS collisional cross section (sample type: Human plasma, ion (formula + adduct): [C46H84NO8P+HCOO] 1-): 299.5 Å²
SMILES: CCCCC/C=C\C/C=C\CCCCCCCCCC(=O)O[C@H](COC(=O)CCCCCCC/C=C\C/C=C\CCCCC)COP(=O)([O-])OCC[N+](C)(C)C [PC 18:2_20:2]

TIMS collisional cross section (sample type: Human plasma, ion (formula + adduct): [C43H78NO9P-H] 1-): 298.2 Å²
TIMS collisional cross section (sample type: Mouse Liver, ion (formula + adduct): [C43H78NO9P-H] 1-): 281.9 Å²
SMILES: CCCCC/C=C\C[C@H](O)/C=C/C=C\C/C=C\CCCC(=O)O[C@H](COC(=O)CCCCCCCCCCCCCCCCC)COP(=O)(O)OCCN [Oxidized PE 18:0@_20:4]

TIMS collisional cross section (sample type: Human plasma, ion (formula + adduct): [C19H37O7P-H] 1-): 198.2 Å²
SMILES: CCCCCC/C=C\CCCCCCCC(=O)OC[C@@H](O)COP(=O)(O)O [LPA 16:1_0:0]

TIMS collisional cross section (sample type: Mouse Liver, ion (formula + adduct): [C40H82NO7P+HCOO] 1-): 287.2 Å²
SMILES: CCCCCCCCCCCCCCCCCC(=O)O[C@H](COCCCCCCCCCCCCCC)COP(=O)([O-])OCC[N+](C)(C)C [PC O- 14:0@_18:0]

TIMS collisional cross section (sample type: Human plasma, ion (formula + adduct): [C42H76NO8P+HCOO] 1-): 288.2 Å²
TIMS collisional cross section (sample type: Mouse Liver, ion (formula + adduct): [C42H76NO8P+AcO] 1-): 290.4 Å²
SMILES: CCCCC/C=C\C/C=C\C/C=C\C/C=C\CCCC(=O)O[C@H](COC(=O)CCCCCCCCCCCCC)COP(=O)([O-])OCC[N+](C)(C)C [PC 14:0_20:4]

TIMS collisional cross section (sample type: Human plasma, ion (formula + adduct): [C43H80NO7P-H] 1-): 276.3 Å²
SMILES: CCCCC/C=C\C/C=C\C/C=C\C/C=C\CCCC(=O)O[C@H](COCCCCCCCCCCCCCCC)COP(=O)([O-])OCC[N+](C)(C)C [PC O- 15:0@_20:4]

TIMS collisional cross section (sample type: Human plasma, ion (formula + adduct): [C40H78NO7P-CH3] 1-): 267.3 Å²
SMILES: CCCCCCCC/C=C\CCCCCCCC(=O)O[C@H](CO/C=C\CCCCCCCCCCCC)COP(=O)([O-])OCC[N+](C)(C)C [PC P- 14:0@_18:1]

TIMS collisional cross section (sample type: Human plasma, ion (formula + adduct): [C28H52NO7P+HCOO] 1-): 245.03 ± 0.87 Å²
TIMS collisional cross section (sample type: Human plasma, ion (formula + adduct): [C28H52NO7P-CH3] 1-): 225.9 Å²
SMILES: CCCCC/C=C\C/C=C\C/C=C\CCCCCCC(=O)OC[C@@H](O)COP(=O)([O-])OCC[N+](C)(C)C [LPC 20:3_0:0]

TIMS collisional cross section (sample type: Mouse Liver, ion (formula + adduct): [C45H76NO8P-H] 1-): 279.5 ± 0.85 Å²
SMILES: CC/C=C\C/C=C\C/C=C\C/C=C\C/C=C\C/C=C\CCC(=O)OC[C@H](COP(=O)(O)OCCN)OC(=O)CCCCCCC/C=C\CCCCCCCC [PE 22:6_18:1]

TIMS collisional cross section (sample type: Human plasma, ion (formula + adduct): [C46H86NO7P+HCOO] 1-): 299 Å²
SMILES: CCCCC/C=C\C/C=C\C/C=C\C/C=C\CCCC(=O)O[C@H](COCCCCCCCCCCCCCCCCCC)COP(=O)([O-])OCC[N+](C)(C)C [PC O- 18:0@_20:4]

SMILES: CCCCCCCCCCCCCC/C=C\OC[C@H](COP(=O)([O-])OCC[N+](C)(C)C)OC(=O)CCCCCCCCCCCCCCC [PC P- 16:0_16:0]
TIMS collisional cross section (sample type: Human plasma, ion (formula + adduct): [C40H80NO7P+HCOO] 1-): 287.8 Å²
TIMS collisional cross section (sample type: Mouse Liver, ion (formula + adduct): [C40H80NO7P-CH3] 1-): 267.55 ± 2 Å²

SMILES: CCCCCCCCCCCCCCCCCCCCCC(=O)OC[C@@H](O)COP(=O)([O-])OCC[N+](C)(C)C [LPC 22:0_0:0]
TIMS collisional cross section (sample type: Human plasma, ion (formula + adduct): [C30H62NO7P+HCOO] 1-): 258.6 Å²
TIMS collisional cross section (sample type: Mouse Liver, ion (formula + adduct): [C30H62NO7P+HCOO] 1-): 258.6 Å²

TIMS collisional cross section (sample type: Human plasma, ion (formula + adduct): [C48H86NO7P+HCOO] 1-): 303.2 Å²
SMILES: CC/C=C\C/C=C\C/C=C\C/C=C\C/C=C\C/C=C\CCC(=O)O[C@H](COCCCCCCCCCCCCCCCCCC)COP(=O)([O-])OCC[N+](C)(C)C [PC O- 18:0@_22:6]
